Results on 37 molecules are retold here after ChEMBL document CHEMBL1138896, “2,3,7-Trisubstituted pyrazolo[1,5-d][1,2,4]triazines: functionally selective GABAA alpha3-subtype agonists” (Bioorg Med Chem Lett, 2006).

For data set [1], the target named is GABA-A receptor; alpha-1/beta-3/gamma-2 (Homo sapiens) (UniProt P14867+P18507+P28472). As to the kind of experiment: Efficacy against human recombinant GABA-Aalpha1 plus beta-3-gamma-2 receptor expressed in L(tk-) cells assessed as modulation of chloride ion by whole cell patch clamp method relative to chlorodiazepoxide. The data set is classed as functional, cell-based. In general terms: The patch-clamp technique gives a direct electrical read-out from membranes.

The target of data set [2] is GABA-A receptor; alpha-3/beta-3/gamma-2 (Homo sapiens) (UniProt P18507+P28472+P34903). The data set is described as follows: Efficacy against human recombinant GABA-Aalpha3 plus beta-3-gamma-2 receptor expressed in L(tk-) cells assessed as modulation of chloride ion by whole cell patch clamp method relative to chlorodiazepoxide. The data set is classed as functional, cell-based.

Data set [3] concerns the target T1, GABA-A receptor; alpha-3/beta-3/gamma-2 (Homo sapiens, UniProt P18507+P28472+P34903).
T1 sequence (P18507 whole entry): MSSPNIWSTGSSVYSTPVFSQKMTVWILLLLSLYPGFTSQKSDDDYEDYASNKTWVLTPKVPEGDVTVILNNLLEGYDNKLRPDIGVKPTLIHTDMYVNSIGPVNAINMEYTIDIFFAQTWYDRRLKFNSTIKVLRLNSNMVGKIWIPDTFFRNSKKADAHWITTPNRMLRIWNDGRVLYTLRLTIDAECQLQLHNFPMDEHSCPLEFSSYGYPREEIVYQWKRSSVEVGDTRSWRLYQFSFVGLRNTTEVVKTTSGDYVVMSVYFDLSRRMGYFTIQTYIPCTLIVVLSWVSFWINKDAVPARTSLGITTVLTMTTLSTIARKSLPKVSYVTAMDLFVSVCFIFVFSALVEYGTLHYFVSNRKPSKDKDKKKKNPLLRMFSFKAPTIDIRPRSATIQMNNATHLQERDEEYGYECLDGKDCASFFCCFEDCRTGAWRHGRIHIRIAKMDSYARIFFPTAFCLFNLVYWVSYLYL
T1 sequence (P28472 whole entry): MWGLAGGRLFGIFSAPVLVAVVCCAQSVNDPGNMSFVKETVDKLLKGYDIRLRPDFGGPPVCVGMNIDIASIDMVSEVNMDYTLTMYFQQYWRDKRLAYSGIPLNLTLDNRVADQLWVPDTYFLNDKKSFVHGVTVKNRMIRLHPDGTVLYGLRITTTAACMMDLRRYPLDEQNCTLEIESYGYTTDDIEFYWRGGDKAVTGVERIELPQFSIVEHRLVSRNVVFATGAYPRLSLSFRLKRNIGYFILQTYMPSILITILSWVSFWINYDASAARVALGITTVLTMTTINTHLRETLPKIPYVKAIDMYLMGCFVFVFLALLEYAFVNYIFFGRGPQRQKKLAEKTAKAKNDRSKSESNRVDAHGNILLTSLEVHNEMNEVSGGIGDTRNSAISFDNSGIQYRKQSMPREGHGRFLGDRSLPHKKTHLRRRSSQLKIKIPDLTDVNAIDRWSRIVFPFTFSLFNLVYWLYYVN
T1 sequence (P34903 whole entry): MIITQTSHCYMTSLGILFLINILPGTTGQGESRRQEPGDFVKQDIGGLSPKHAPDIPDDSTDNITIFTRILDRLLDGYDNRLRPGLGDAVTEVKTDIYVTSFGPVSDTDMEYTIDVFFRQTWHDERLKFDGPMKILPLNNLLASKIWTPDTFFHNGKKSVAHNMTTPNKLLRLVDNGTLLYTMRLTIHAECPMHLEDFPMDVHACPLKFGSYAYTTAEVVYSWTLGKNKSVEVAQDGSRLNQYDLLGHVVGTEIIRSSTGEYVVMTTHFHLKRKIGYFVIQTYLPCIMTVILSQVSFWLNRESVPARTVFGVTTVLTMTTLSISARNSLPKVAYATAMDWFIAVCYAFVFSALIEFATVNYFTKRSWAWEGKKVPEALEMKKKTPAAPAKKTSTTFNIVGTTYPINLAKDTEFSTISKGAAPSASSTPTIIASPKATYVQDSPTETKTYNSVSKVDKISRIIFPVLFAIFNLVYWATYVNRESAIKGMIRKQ
The data set is described as follows: Inhibition of [3H]Ro15-1788 binding to human recombinant GABA-Aalpha3 plus beta-3-gamma-2 receptor expressed in L(tk-) cells. The data set is classed as cell-based.

Data set [4] concerns the target T2, GABA-A receptor; alpha-1/beta-3/gamma-2 (Homo sapiens, UniProt P14867+P18507+P28472).
T2 sequence (P14867 whole entry): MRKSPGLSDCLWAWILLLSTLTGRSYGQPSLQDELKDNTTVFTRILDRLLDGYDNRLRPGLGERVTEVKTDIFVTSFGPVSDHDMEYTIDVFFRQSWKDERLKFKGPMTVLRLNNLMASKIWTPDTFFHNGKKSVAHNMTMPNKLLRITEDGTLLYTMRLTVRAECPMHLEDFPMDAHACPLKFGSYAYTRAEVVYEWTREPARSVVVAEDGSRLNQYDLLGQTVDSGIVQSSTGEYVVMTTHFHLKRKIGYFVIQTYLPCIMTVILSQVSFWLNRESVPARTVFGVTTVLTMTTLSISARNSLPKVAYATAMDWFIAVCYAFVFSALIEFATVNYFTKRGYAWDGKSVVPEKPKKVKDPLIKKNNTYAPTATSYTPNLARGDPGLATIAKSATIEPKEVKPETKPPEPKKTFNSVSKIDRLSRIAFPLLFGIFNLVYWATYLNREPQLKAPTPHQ
T2 sequence (P18507 whole entry): T1 sequence (P18507 whole entry)
T2 sequence (P28472 whole entry): T1 sequence (P28472 whole entry)
The data set is described as follows: Inhibition of [3H]Ro15-1788 binding to human recombinant GABA-Aalpha1 plus beta-3-gamma-2 receptor expressed in L(tk-) cells. The data set is classed as cell-based.

Another data set deals with Rattus norvegicus. The data set is described as follows: Receptor occupancy in rat, po. The data set is classed as functional.
The nature of data set [5]: Oral bioavailability in rat. The settings on record: in vivo. It is filed as ADME, organism-based.

What is called Ki is a dissociation constant, usually derived from enzyme kinetics or from competition with a known ligand. As for `Cn1ncnc1COc1nn2c(-c3ccccc3F)nncc2c1-c1cccc(F)c1F`, the Efficacy in data set [1] amounted to 0.27; in data set [2] it was 0.4. Further, in data set [3], the Ki is 1.5 nM.

On to `Cn1ncnc1COc1nn2c(-c3ccccc3F)nncc2c1-c1ccco1`, for which the Efficacy in data set [1] was -0.09; in data set [2], 0.16. In addition, the Ki in data set [3] was 0.11 nM.

In the case of `Cn1ncnc1COc1nn2c(-c3c(F)ccc(F)c3F)nncc2c1-c1ccccc1F`, the Efficacy amounted to 0.45 in data set [1] and 0.55 in data set [2]. Also, the Ki in data set [3] was determined as 2.7 nM.

With `Cc1ccccc1-c1c(OCc2ncnn2C)nn2c(-c3ccccc3F)nncc12`, in data set [3], the Ki stood at 23 nM.

In the case of `Cn1ncnc1COc1nn2c(-c3ccccc3Cl)nncc2c1-c1ccccc1F`, the figures for the Efficacy in data set [1] and in data set [2] were -0.02 and 0.02, respectively. The Ki in data set [3] was 21 nM.

As for `Cn1ncnc1COc1nn2c(-c3ccccc3F)nncc2c1-c1cccc(N)c1`, the values for the Efficacy in data set [1] and in data set [2] were 0.42 and 0.38, respectively. Besides, the inhibition constant (Ki) in data set [3] stood at 14 nM.

For the molecule `Cn1ncnc1COc1nn2c(-c3ccccc3F)nncc2c1-c1cncnc1`, the Ki in data set [3] was over 33 nM.

Take `Cn1ncnc1COc1nn2c(-c3ccc(F)cc3)nncc2c1-c1ccccc1F`: the figures for the Efficacy in data set [1] and in data set [2] were 0.36 and 0.6, respectively. The Ki in data set [3] stood at 0.94 nM.

In the case of `Cn1ncnc1COc1nn2c(-c3ccccc3F)nncc2c1-c1ccccc1`, the Efficacy in data set [1] was 0.18; in data set [2] it was 0.44. The inhibition constant Ki in data set [3] is 0.77 nM; in data set [4] it was 0.39 nM.

With `Cn1ncnc1COc1nn2c(-c3ccccc3F)nncc2c1-c1cccs1`, the Efficacy stood at 0.01 in data set [1] and 0.12 in data set [2]. In addition, the Ki in data set [3] came to 0.1 nM.

For `Cn1ncnc1COc1nn2c(C3CC3)nncc2c1-c1ccccc1F`, the Efficacy in data set [1] was -0.08; in data set [2] it was -0.01. For the same molecule, the Ki in data set [3] worked out at 0.36 nM.

For `Cn1ncnc1COc1nn2c(-c3cccnc3)nncc2c1-c1ccccc1F`, the Efficacy in data set [1] came out at 0.15; in data set [2], 0.16. Moreover, the Ki in data set [3] was 1.1 nM.

`Cn1ncnc1COc1nn2c(-c3ccccc3F)nncc2c1-c1ccc(F)cc1`: the Efficacy in data set [1] was found to be 0.09; in data set [2], 0.31. Further, in data set [3], the Ki was determined as 6.3 nM.

`Cn1ncnc1COc1nn2c(-c3ccccc3F)nncc2c1-c1ccncc1`: the Efficacy is 0.1 in data set [1] and 0.19 in data set [2]. The Ki in data set [3] was 0.14 nM.

Regarding `Cn1ncnc1COc1nn2c(-c3ccccc3F)nncc2c1-c1ccccn1`, the Efficacy in data set [1] is 0.45; in data set [2], 0.56. Besides, in data set [3], the Ki stood at 1.4 nM.

Turning to `Cn1ncnc1COc1nn2c(-c3ccccc3F)nncc2c1-c1cccc(CO)c1`, the Efficacy in data set [1] and in data set [2] was 0.5 each time. Besides, in data set [3], the Ki came to 6.6 nM.

For `Cn1ncnc1COc1nn2c(-c3ccccc3F)nncc2c1-c1cccc(Cl)c1`, the Efficacy in data set [1] was found to be 0.35; in data set [2], 0.45. Moreover, in data set [3], the Ki came to 1.1 nM.

With `Cn1ncnc1COc1nn2c(-c3ccco3)nncc2c1-c1ccccc1F`, the results for the Efficacy in data set [1] and in data set [2] were 0.01 and 0.19, respectively. Besides, the Ki in data set [3] turned out to be 0.85 nM.

For `Cn1ncnc1COc1nn2c(-c3c(F)cc(F)cc3F)nncc2c1-c1ccccc1F`, the Efficacy in data set [1] is 0.37; in data set [2], 0.59. For the same molecule, the Ki in data set [3] came out at 2.6 nM.

On to `Cn1ncnc1COc1nn2c(-c3ccccc3F)nncc2c1-c1cc(F)ccc1F`, for which the results for the Efficacy in data set [1] and in data set [2] were 0.29 and 0.46, respectively. Further, the Ki in data set [3] is 0.2 nM.

With `Cn1ncnc1COc1nn2c(-c3ccccc3F)nncc2c1-c1c(F)cccc1F`, the Efficacy in data set [1] stood at 0.23; in data set [2] it was 0.45. Moreover, the inhibitory constant (Ki) in data set [3] was found to be 0.55 nM.

For orientation: bioavailability means the share of a dose that reaches the circulation, judged against a reference dose that is usually intravenous. Lower therefore signals little systemic uptake. As to `Cn1ncnc1COc1nn2c(-c3ccccc3F)nncc2c1-c1ccsc1`, the values for the Efficacy in data set [1] and in data set [2] were -0.02 and 0.21, respectively. The Activity with Rattus norvegicus was determined as 0.54 mg/kg. The same molecule displayed a bioavailability in data set [5] of 32%. Also, the Ki in data set [3] stood at 0.1 nM.

For `Cn1ncnc1COc1nn2c(-c3ccccc3F)nncc2c1-c1cccc(C(F)(F)F)c1`, the Efficacy in data set [1] was determined as 0.3; in data set [2], 0.46. Further, the Ki in data set [3] is 0.54 nM.

As to `Cn1ncnc1COc1nn2c(-c3c(F)cccc3F)nncc2c1-c1ccccc1F`, the values for the Efficacy in data set [1] and in data set [2] were 0.29 and 0.55, respectively. Also, the Ki in data set [3] is 0.52 nM.

As for `Cn1ncnc1COc1nn2c(-c3ccccc3F)nncc2c1-c1cc(F)cc(F)c1`, in data set [3], the Ki is over 33 nM.

With `Cn1ncnc1COc1nn2c(-c3ccccc3F)nncc2c1-c1cccc(C#N)c1`, the Efficacy in data set [1] is 0.35; in data set [2], 0.28. For the same molecule, the Ki in data set [3] is 1.6 nM.

As for `Cn1ncnc1COc1nn2c(-c3cccs3)nncc2c1-c1ccccc1`, the values for the Efficacy in data set [1] and in data set [2] were -0.03 and 0.19, respectively. Further, in data set [3], the inhibition constant Ki came out at 1.6 nM.

Consider `Cn1ncnc1COc1nn2c(-c3ccccc3F)nncc2c1-c1ccccc1F`, for which the Efficacy in data set [1] was determined as 0.22; in data set [2] it was 0.4. Further, the Ki in data set [3] is 0.45 nM.

With `Cn1ncnc1COc1nn2c(-c3ccccc3F)nncc2c1-c1cccc(F)c1`, the Efficacy in data set [1] was 0.23; in data set [2], 0.46. In addition, the inhibitory constant (Ki) in data set [3] came out at 0.28 nM.

As for `Cn1ncnc1COc1nn2c(-c3cc(F)ccc3F)nncc2c1-c1ccccc1F`, the Efficacy in data set [1] and in data set [2] was 0.52 in each case. In addition, in data set [3], the Ki came to 1.3 nM.

For `Cn1ncnc1COc1nn2c(-c3ccc(F)cc3F)nncc2c1-c1ccccc1F`, the Efficacy in data set [1] was 0.42; in data set [2] it was 0.78. Besides, in data set [3], the Ki was 2 nM.

Regarding `Cn1ncnc1COc1nn2c(-c3ccoc3)nncc2c1-c1ccccc1F`, the Efficacy in data set [1] was 0.07; in data set [2] it was -0.12. The Ki in data set [3] came out at 0.61 nM.

For `Cn1ncnc1COc1nn2c(-c3ccccc3F)nncc2c1-c1ccccc1C(F)(F)F`, in data set [3], the Ki is over 33 nM.

As for `Cn1ncnc1COc1nn2c(-c3cccc(F)c3)nncc2c1-c1ccccc1F`, the values for the Efficacy in data set [1] and in data set [2] were 0.38 and 0.57, respectively. Also, the Ki in data set [3] worked out at 1.2 nM.

For the molecule `Cn1ncnc1COc1nn2c(-c3ccccc3F)nncc2c1-c1ccccc1Cl`, the Efficacy in data set [1] and in data set [2] was 0.32 in each case. Moreover, the inhibition constant (Ki) in data set [3] turned out to be 8.7 nM.

For the molecule `Cn1ncnc1COc1nn2c(-[n+]3ccncc3)nncc2c1-c1ccccc1F`, the Efficacy was determined as 0.03 in data set [1] and 0.18 in data set [2]. The Ki in data set [3] turned out to be 2.7 nM.

As for `Cn1ncnc1COc1nn2c(-c3ccccc3F)nncc2c1-c1cccnc1`, the Efficacy in data set [1] amounted to 0.35; in data set [2], 0.52. In addition, the Ki in data set [3] stood at 0.98 nM.
